This is an account of results in ChEMBL document CHEMBL3877242, “Synthesis of novel 25-hydroxyprotopanaxadiol derivatives by methylation and methoxycarbonylation using dimethyl carbonate as a environment-friendly reagent and their anti-tumor evaluation” (Bioorg Med Chem Lett, 2016).

The term IC50 denotes the point on the concentration scale where inhibition reaches its midpoint.

Data set [1] in a line: Cytotoxicity against human HeLa cells assessed as cell growth inhibition at 30 uM after 48 hrs by MTT assay. Conditions: read-out: GI. The format is functional.
Data set [2] is described as follows: Cytotoxicity against human HeLa cells assessed as reduction in cell viability after 48 hrs by MTT assay. The format is functional, cell-based.
Data set [3] is described as follows: Cytotoxicity against human IOSE-144 cells assessed as reduction in cell viability after 48 hrs by MTT assay. Type of data set: toxicity, cell-based.
The nature of data set [4]: (§1) Cytotoxicity against human DU145 cells assessed as reduction in cell viability after 48 hrs by MTT assay. The format is functional, cell-based. Conditions: DU-145, 48 h. (Tetrazolium assays rely on reduction of a dye to a coloured formazan, in cell work by metabolically active cells.)
In data set [5] the test system is DU-145. The data set is described as §1. The format is functional, cell-based.
Data set [6] is described as follows: Cytotoxicity against human DU145 cells assessed as viable cells at 30 uM after 48 hrs by MTT assay. The format is functional. Conditions: DU-145, 48 h, read-out: GI.
Data set [7] has as its system DU-145. Description: Potency index, ratio of 5-FU IC50 to compound IC50 for human DU145 cells. Type of data set: functional.

Regarding `COC(=O)O[C@H]1CC[C@]2(C)[C@H]3C[C@@H](O)[C@@H]4[C@@H](/C(C)=C/CCC(C)(C)O)CC[C@@]4(C)[C@]3(C)CC[C@H]2C1(C)C`, the inhibition of growth at 30 µM in data set [1] and in data set [6] was 19.7% throughout. Moreover, the IC50 came out at 15.9 µM in data set [2] and 10.9 µM in data set [4]. For the same compound, the IC50 at 48 h in data set [3] was greater than 100 µM. Moreover, in the data set with DU-145 [5], the “growth inhibition (GI)” value is “Dose-dependent effect”.
In the case of `COC(C)(C)CCC[C@@](C)(O)[C@H]1CC[C@]2(C)[C@@H]1[C@H](O)C[C@@H]1[C@@]3(C)CC[C@H](O)C(C)(C)[C@@H]3CC[C@]12C`, the IC50 in data set [2] came to 22.5 µM; in data set [4], 5.4 µM. Further, the half-maximal inhibitory concentration (IC50) at 48 h in data set [3] was greater than 100 µM.
In the case of `CO[C@H]1CC[C@]2(C)[C@H]3C[C@@H](OC)[C@@H]4[C@@H]([C@@](C)(CCCC(C)(C)OC)OC)CC[C@@]4(C)[C@]3(C)CC[C@H]2C1(C)C`, the half-inhibitory concentration (IC50) in data set [2] is 21.8 µM; in data set [4], 18.7 µM. In addition, the 50% inhibitory concentration (IC50) at 48 h in data set [3] was greater than 100 µM. Also, the “growth inhibition (GI)” value in the data set with DU-145 [5] is “Dose-dependent effect”.
For the compound `CO[C@H]1CC[C@]2(C)[C@H]3C[C@@H](O)[C@@H]4[C@@H]([C@@](C)(CCCC(C)(C)O)OC)CC[C@@]4(C)[C@]3(C)CC[C@H]2C1(C)C`, the inhibition of growth at 30 µM in data set [1] and in data set [6] was 32.5% each time. The IC50 in data set [2] amounted to 6.7 µM; in data set [4], 5.6 µM. Besides, the IC50 at 48 h in data set [3] is greater than 100 µM. Besides, the “growth inhibition (GI)” value in the data set with DU-145 [5] is “Dose-dependent effect”.
`CO[C@H]1CC[C@]2(C)[C@H]3C[C@@H](OC)[C@@H]4[C@@H](/C(C)=C/CCC(C)(C)O)CC[C@@]4(C)[C@]3(C)CC[C@H]2C1(C)C`: the values for the IC50 in data set [2] and in data set [4] were 1.2 µM and 12.1 µM, respectively. For the same compound, the IC50 at 48 h in data set [3] was greater than 100 µM. Besides, the “growth inhibition (GI)” value in the data set with DU-145 [5] was “Dose-dependent effect”.
Turning to `COC(=O)O[C@H]1CC[C@]2(C)[C@H]3C[C@@H](O)[C@@H]4[C@@H]([C@](C)(O)CCC=C(C)C)CC[C@@]4(C)[C@]3(C)CC[C@H]2C1(C)C`, the inhibition of growth at 30 µM in data set [1] and in data set [6] was 38.4% throughout. Besides, the IC50 in data set [2] came out at 10.4 µM; in data set [4], 1.2 µM. The half-inhibitory concentration (IC50) at 48 h in data set [3] is greater than 100 µM. The “Ratio IC50” value in the data set with DU-145 [7] is 20 - 22. The “growth inhibition (GI)” value in the data set on DU-145 [5] is “Dose-dependent effect”.
As for `COC(=O)O[C@H]1CC[C@]2(C)[C@H]3C[C@@H](OC(=O)OC)[C@@H]4[C@@H](/C(C)=C/CCC(C)(C)OC(=O)OC)CC[C@@]4(C)[C@]3(C)CC[C@H]2C1(C)C`, the figures for the 50% inhibitory concentration (IC50) in data set [2] and in data set [4] were greater than 100 µM and 80.3 µM, respectively. Besides, the IC50 at 48 h in data set [3] was greater than 100 µM. Besides, in the data set with DU-145 [5], the “growth inhibition (GI)” value was “Dose-dependent effect”.
Take `O=c1[nH]cc(F)c(=O)[nH]1` [FLUOROURACIL]: the IC50 was 28.2 µM in data set [2] and 26.1 µM in data set [4]. In addition, the IC50 at 48 h in data set [3] amounted to 36.1 µM.
As for `COC(C)(C)CC/C=C(\C)[C@H]1CC[C@]2(C)[C@@H]1[C@H](O)C[C@@H]1[C@@]3(C)CC[C@H](O)C(C)(C)[C@@H]3CC[C@]12C`, the inhibition of growth at 30 µM in data set [1] and in data set [6] was 20.4% each time. The IC50 came out at 1.3 µM in data set [2] and 3.2 µM in data set [4]. Moreover, the IC50 at 48 h in data set [3] is greater than 100 µM. The “growth inhibition (GI)” value with DU-145 [5] was “Dose-dependent effect”.
As for `CC(C)(O)CCC[C@@](C)(O)[C@H]1CC[C@]2(C)[C@@H]1[C@H](O)C[C@@H]1[C@@]3(C)CC[C@H](O)C(C)(C)[C@@H]3CC[C@]12C`, the IC50 in data set [2] was 46.4 µM; in data set [4], 57.9 µM. Also, the IC50 at 48 h in data set [3] was greater than 100 µM.
For the compound `COC(=O)O[C@H]1CC[C@]2(C)[C@H]3C[C@@H](O)[C@@H]4[C@@H]([C@@](C)(CCCC(C)(C)O)OC)CC[C@@]4(C)[C@]3(C)CC[C@H]2C1(C)C`, the inhibition of growth at 30 µM in data set [1] and in data set [6] was 18.6% each time. The IC50 in data set [2] is 7.1 µM; in data set [4] it was 3.9 µM. Besides, in data set [3], the half-maximal inhibitory concentration (IC50) at 48 h is greater than 100 µM. For the same compound, the “growth inhibition (GI)” value in the data set on DU-145 [5] is “Dose-dependent effect”.
Regarding `COC(=O)O[C@H]1CC[C@]2(C)[C@H]3C[C@@H](O)[C@@H]4[C@@H]([C@](C)(O)CCCC(C)(C)OC(=O)OC)CC[C@@]4(C)[C@]3(C)CC[C@H]2C1(C)C`, the values for the IC50 in data set [2] and in data set [4] were 34.6 µM and 29.2 µM, respectively. In addition, in data set [3], the IC50 at 48 h is greater than 100 µM. Further, in the data set on DU-145 [5], the “growth inhibition (GI)” value was “Dose-dependent effect”.
In the same order, the values of `COC(=O)O[C@H]1CC[C@]2(C)[C@H]3C[C@@H](O)[C@@H]4[C@@H]([C@](C)(O)CCCC(C)(C)O)CC[C@@]4(C)[C@]3(C)CC[C@H]2C1(C)C` are 59.9 µM, 87.1 µM, greater than 100 µM and “Dose-dependent effect”.
Take `COC(=O)O[C@H]1CC[C@]2(C)[C@H]3C[C@@H](O)[C@@H]4[C@@H]([C@@](C)(CCC=C(C)C)OC)CC[C@@]4(C)[C@]3(C)CC[C@H]2C1(C)C`: the IC50 in data set [2] is 30.2 µM; in data set [4] it was 41.1 µM. In addition, the half-inhibitory concentration (IC50) at 48 h in data set [3] was greater than 100 µM. Besides, in the data set with DU-145 [5], the “growth inhibition (GI)” value is “Dose-dependent effect”.
With `CO[C@](C)(CCC=C(C)C)[C@H]1CC[C@]2(C)[C@@H]1[C@H](O)C[C@@H]1[C@@]3(C)CC[C@H](O)C(C)(C)[C@@H]3CC[C@]12C`, the inhibition of growth at 30 µM in data set [1] and in data set [6] was 20.6% throughout. Also, the 50% inhibitory concentration (IC50) in data set [2] was found to be 1.1 µM; in data set [4] it was 2.6 µM. The IC50 at 48 h in data set [3] was greater than 100 µM. Also, the “Ratio IC50” value with DU-145 [7] is recorded as 20 - 22. The “growth inhibition (GI)” value with DU-145 [5] is “Dose-dependent effect”.
Turning to `COC(=O)OC(C)(C)CCC[C@@](C)(O)[C@H]1CC[C@]2(C)[C@@H]1[C@H](O)C[C@@H]1[C@@]3(C)CC[C@H](O)C(C)(C)[C@@H]3CC[C@]12C`, the figures for the IC50 in data set [2] and in data set [4] were 26.9 µM and 27.2 µM, respectively. Also, the IC50 at 48 h in data set [3] is greater than 100 µM. Also, the “growth inhibition (GI)” value in the data set on DU-145 [5] is “Dose-dependent effect”.
Regarding `COC(=O)O[C@H]1CC[C@]2(C)[C@H]3C[C@@H](O)[C@@H]4[C@@H]([C@@](C)(CCCC(C)(C)OC(=O)OC)OC)CC[C@@]4(C)[C@]3(C)CC[C@H]2C1(C)C`, the IC50 was found to be 38.2 µM in data set [2] and 32.6 µM in data set [4]. Besides, the concentration for half-maximal inhibition (IC50) at 48 h in data set [3] is greater than 100 µM. The “growth inhibition (GI)” value in the data set with DU-145 [5] is “Dose-dependent effect”.
